Values of other authors in US20230265432A1, “METHODS AND COMPOSITIONS FOR TREATING ACUTE MYELOID LEUKEMIA” (Sanford Burnham Prebys Medical Discovery Institute, priority 2021, published 2023).
Structures can show the parent of a compound that is named as a salt.

Legend:
SIRT3 = SIRT3 (Homo sapiens, UniProt Q9NTG7); settings: cited from earlier work
SIRT2 = SIRT2 (Homo sapiens, UniProt Q8IXJ6); settings: cited from earlier work
yeast Hmt1p = yeast Hmt1p (Saccharomyces cerevisiae, UniProt P38074); settings: cited from earlier work
[1] = target: T1, HIV-1 reverse transcriptase (Human immunodeficiency virus type 1 group M subtype B, UniProt P04585); settings: cited from earlier work
T1 construct: HIV-1 reverse transcriptase

SMYD2 = SMYD2 (Homo sapiens, UniProt Q9NRG4); settings: cited from earlier work
[2] = test system: phosphorylation of histone 2A at Thr120 in DU-145 human prostate cancer cells; settings: cited from earlier work
human dermal fibroblasts = settings: cited from earlier work
HuT-78 cells = settings: cited from earlier work
HDAC6 = target: T2, HDAC6 (Homo sapiens, UniProt Q9UBN7); settings: cited from earlier work
T2 sequence (Q9UBN7 1-1215): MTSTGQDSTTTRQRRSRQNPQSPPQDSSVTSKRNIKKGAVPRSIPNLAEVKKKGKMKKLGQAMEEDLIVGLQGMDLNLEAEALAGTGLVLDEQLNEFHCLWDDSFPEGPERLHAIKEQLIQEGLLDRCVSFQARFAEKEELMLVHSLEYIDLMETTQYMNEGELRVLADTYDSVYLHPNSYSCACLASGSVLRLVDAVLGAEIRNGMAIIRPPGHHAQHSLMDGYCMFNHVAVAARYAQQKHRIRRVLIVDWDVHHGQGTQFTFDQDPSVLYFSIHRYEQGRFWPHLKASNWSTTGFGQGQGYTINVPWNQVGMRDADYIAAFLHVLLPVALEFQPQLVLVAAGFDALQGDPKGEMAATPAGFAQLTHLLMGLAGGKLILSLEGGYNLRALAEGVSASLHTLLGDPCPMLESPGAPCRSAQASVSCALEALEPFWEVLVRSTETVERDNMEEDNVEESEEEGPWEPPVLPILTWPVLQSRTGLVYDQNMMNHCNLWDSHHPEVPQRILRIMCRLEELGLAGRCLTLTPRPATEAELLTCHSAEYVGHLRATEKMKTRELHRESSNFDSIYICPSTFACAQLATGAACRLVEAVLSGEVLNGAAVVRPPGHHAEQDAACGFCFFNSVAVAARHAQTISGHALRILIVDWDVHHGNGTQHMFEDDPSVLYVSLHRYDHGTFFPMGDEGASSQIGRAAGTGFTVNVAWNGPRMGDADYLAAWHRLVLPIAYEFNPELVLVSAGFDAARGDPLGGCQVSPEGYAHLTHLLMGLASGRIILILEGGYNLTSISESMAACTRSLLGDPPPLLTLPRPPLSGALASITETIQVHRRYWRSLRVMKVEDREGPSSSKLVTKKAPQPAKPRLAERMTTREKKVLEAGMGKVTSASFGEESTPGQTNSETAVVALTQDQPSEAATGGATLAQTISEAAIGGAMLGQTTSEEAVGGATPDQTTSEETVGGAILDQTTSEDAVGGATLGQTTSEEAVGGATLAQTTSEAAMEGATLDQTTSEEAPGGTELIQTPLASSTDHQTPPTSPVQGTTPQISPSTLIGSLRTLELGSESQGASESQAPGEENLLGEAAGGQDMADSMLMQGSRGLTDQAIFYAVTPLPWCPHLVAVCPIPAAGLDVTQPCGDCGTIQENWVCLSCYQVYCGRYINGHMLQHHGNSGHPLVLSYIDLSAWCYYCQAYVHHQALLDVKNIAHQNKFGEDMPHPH

HCT116 = settings: cited from earlier work
HDAC2 = HDAC2 (Homo sapiens, UniProt Q92769); settings: cited from earlier work
HDAC4 = HDAC4 (Homo sapiens, UniProt P56524); settings: cited from earlier work
neuroblastoma tumor = settings: 200 mg/kg; cited from earlier work
HDAC8 = HDAC8 (Homo sapiens, UniProt Q9BY41); settings: cited from earlier work
EZH2 = EZH2 (Homo sapiens, UniProt Q15910); settings: cited from earlier work
EZH2 (Y641F) = EZH2 (Y641F) (Homo sapiens, UniProt Q15910, Y641F); settings: cited from earlier work
[3] = test system: trimethylation of the PRC2 target H3K27; settings: cited from earlier work
[4] = test system: trimethylation of H3K27 in HCC1806 cells; settings: cited from earlier work
REV-ERBa = REV-ERBa (Homo sapiens, UniProt P20393); settings: agonist; cited from earlier work
BRD3 = BRD3 (Homo sapiens, UniProt Q15059); settings: cited from earlier work
BRD2 = BRD2 (Homo sapiens, UniProt P25440); settings: cited from earlier work
[5] = test system: EZH2 mutant DLBCL cell lines; settings: proliferation; cited from earlier work
EZH1 = EZH1 (Homo sapiens, UniProt Q92800); settings: cited from earlier work
UTX = UTX (Homo sapiens, UniProt O15550); settings: as measured by mass spectrometry; cited from earlier work
[6] = test system: various cancer cell lines; settings: proliferation; cited from earlier work
CBP = CBP (Homo sapiens, UniProt Q92793); settings: cited from earlier work
JMJD2A = JMJD2A (Homo sapiens, UniProt O75164); settings: cited from earlier work
JMJD2B = JMJD2B (Homo sapiens, UniProt O94953); settings: cited from earlier work
[7] = test system: p53K370 monomethylation in cells; settings: cited from earlier work
MOF = MOF (Homo sapiens, UniProt Q9H7Z6); settings: cited from earlier work
[8] = target: jumonji histone demethylase (JMJD2); settings: cited from earlier work
PARP = settings: cited from earlier work
DNA methyltransferase = settings: cited from earlier work
[9] = test system: HDAC activity in HeLa cell nuclear lysates; settings: cited from earlier work
[10] = test system: histone methylation in cells; settings: cited from earlier work
SIRT5 = SIRT5 (Homo sapiens, UniProt Q9NXA8); settings: cited from earlier work
[11] = test system: H3K9 dimethylation levels in PANC-1 cells; settings: cited from earlier work
[12] = target: G9a and GLP methyltransferases; settings: competitive with H3K9 substrates; cited from earlier work
[13] = test system: H3K9 dimethylation in MDA-MB231 cells; settings: cited from earlier work
GLP = GLP (Homo sapiens, UniProt Q9H9B1); settings: cited from earlier work
[14] = test system: H3K27methylation in MCF10A cells; settings: cited from earlier work
MLL core complex = MLL core complex (Homo sapiens, UniProt P61964); settings: in vitro; cited from earlier work
WDR5 = WDR5 (Homo sapiens, UniProt P61964); settings: cited from earlier work
JAK2 = target: T3, JAK2 (Homo sapiens, UniProt O60674, V617F); settings: in HEL cells; cited from earlier work
T3 construct: endogenous in cells; host or cells: HEL cells

STAT3 = target: T4, STAT3 (Homo sapiens, UniProt P40763); settings: in HEL cells; cited from earlier work
T4 construct: endogenous in cells; host or cells: HEL cells

EGFR = EGFR (Homo sapiens, UniProt P00533); settings: cited from earlier work

Chain of EZH2 (Q15910 whole entry, species assumed): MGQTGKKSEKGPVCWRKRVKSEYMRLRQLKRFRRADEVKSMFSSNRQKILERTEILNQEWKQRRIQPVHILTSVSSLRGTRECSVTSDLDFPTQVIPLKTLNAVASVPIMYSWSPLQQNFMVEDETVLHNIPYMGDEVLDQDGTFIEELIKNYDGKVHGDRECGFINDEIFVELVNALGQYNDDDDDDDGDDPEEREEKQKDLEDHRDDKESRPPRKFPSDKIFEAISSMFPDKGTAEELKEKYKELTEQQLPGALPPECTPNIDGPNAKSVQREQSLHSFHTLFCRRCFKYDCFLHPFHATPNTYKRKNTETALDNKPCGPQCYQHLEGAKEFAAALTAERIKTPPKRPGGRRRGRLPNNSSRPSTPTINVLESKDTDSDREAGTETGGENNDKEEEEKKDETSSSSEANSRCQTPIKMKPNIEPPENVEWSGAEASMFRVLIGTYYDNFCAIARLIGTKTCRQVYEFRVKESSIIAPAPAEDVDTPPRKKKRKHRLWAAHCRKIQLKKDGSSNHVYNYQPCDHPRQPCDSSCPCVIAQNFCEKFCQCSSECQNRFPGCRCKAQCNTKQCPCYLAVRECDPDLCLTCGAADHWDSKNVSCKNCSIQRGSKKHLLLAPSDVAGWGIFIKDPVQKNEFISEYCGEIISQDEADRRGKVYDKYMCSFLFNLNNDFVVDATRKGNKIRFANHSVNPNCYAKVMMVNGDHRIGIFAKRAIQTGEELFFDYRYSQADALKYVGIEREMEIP
Chain of EZH1 (Q92800 whole entry, species assumed): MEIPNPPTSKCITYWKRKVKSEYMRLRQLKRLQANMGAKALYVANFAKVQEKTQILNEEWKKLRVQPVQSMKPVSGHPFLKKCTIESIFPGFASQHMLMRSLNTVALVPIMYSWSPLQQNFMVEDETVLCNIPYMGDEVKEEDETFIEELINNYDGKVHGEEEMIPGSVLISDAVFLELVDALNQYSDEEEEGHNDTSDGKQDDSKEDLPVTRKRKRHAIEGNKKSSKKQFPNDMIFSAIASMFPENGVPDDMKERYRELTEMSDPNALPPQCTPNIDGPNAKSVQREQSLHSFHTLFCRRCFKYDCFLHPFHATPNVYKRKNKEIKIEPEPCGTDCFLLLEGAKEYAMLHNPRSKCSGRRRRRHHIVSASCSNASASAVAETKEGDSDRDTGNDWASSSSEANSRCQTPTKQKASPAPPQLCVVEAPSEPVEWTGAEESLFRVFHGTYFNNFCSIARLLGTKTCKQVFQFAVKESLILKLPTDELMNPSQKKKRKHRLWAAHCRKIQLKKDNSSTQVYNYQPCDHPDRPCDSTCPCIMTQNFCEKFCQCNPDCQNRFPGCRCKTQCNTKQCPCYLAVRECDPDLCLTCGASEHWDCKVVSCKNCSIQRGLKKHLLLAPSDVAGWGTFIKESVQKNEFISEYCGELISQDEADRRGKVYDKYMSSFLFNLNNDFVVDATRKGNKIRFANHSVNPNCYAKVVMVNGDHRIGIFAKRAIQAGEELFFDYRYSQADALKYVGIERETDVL
Chain of EZH1 (O75530 whole entry partner, species assumed): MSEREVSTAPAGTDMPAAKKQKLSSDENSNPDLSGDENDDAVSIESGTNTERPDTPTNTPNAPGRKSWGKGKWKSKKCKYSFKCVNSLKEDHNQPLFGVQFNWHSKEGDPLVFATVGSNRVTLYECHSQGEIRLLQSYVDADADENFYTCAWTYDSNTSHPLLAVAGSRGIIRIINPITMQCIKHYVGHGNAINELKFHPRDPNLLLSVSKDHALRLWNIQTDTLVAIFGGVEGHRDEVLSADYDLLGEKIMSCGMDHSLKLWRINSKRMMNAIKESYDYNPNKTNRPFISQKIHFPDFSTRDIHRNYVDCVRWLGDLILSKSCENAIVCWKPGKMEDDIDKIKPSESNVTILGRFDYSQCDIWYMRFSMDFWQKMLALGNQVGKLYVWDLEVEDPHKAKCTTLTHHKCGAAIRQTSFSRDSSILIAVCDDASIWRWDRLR
Chain of EZH1 (Q15022 whole entry partner, species assumed): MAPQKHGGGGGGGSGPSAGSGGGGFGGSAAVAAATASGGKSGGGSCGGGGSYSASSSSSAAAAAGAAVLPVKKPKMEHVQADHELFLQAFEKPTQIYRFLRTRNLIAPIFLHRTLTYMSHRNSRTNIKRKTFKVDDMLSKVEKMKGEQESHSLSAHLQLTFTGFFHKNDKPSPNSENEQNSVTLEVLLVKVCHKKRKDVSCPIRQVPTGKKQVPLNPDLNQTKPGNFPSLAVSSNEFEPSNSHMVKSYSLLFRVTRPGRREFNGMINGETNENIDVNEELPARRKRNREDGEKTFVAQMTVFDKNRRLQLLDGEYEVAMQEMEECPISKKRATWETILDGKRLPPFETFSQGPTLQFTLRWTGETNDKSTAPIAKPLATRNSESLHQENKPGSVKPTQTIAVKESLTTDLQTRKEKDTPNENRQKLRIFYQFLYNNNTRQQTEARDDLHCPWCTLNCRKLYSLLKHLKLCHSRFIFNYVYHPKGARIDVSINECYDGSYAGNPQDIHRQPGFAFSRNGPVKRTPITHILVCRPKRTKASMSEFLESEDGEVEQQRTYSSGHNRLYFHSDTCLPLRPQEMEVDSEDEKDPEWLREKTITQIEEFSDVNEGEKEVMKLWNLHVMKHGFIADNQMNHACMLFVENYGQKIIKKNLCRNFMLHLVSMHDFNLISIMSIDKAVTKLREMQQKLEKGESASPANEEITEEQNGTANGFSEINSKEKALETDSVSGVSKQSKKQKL
Chain of EZH1 (Q09028 whole entry partner, species assumed): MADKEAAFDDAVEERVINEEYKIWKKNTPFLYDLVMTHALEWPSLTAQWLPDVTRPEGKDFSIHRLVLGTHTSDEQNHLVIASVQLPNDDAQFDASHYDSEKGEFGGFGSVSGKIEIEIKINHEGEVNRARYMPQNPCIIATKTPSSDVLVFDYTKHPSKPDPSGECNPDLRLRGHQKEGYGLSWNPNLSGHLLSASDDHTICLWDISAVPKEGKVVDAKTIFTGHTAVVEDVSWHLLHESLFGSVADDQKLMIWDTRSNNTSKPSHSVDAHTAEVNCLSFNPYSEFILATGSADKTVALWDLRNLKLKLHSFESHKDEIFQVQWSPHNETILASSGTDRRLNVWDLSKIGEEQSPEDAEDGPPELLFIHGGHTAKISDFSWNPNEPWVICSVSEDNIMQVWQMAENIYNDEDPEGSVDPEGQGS
T4 sequence (P40763 whole entry): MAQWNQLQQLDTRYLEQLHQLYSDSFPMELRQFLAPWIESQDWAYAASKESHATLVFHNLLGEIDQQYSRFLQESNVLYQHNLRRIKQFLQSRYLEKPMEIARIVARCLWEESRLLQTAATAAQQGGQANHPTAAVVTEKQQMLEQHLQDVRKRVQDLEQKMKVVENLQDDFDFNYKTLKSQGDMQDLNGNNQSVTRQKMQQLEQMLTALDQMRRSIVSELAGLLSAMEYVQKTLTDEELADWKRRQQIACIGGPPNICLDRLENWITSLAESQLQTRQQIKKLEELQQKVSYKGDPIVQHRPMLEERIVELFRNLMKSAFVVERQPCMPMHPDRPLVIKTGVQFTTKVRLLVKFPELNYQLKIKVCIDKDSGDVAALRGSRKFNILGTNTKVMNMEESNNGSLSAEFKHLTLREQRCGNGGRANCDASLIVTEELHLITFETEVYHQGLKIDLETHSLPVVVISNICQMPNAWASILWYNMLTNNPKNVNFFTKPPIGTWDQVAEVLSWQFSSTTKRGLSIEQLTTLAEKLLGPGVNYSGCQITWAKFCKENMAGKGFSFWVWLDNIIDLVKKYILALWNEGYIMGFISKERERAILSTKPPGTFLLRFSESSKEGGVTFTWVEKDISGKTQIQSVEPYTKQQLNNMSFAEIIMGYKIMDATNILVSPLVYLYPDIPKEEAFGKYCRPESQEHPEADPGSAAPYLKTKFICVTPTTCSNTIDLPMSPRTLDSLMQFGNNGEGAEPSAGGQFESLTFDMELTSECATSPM
Chain of BRD3 (Q15059 whole entry, species assumed): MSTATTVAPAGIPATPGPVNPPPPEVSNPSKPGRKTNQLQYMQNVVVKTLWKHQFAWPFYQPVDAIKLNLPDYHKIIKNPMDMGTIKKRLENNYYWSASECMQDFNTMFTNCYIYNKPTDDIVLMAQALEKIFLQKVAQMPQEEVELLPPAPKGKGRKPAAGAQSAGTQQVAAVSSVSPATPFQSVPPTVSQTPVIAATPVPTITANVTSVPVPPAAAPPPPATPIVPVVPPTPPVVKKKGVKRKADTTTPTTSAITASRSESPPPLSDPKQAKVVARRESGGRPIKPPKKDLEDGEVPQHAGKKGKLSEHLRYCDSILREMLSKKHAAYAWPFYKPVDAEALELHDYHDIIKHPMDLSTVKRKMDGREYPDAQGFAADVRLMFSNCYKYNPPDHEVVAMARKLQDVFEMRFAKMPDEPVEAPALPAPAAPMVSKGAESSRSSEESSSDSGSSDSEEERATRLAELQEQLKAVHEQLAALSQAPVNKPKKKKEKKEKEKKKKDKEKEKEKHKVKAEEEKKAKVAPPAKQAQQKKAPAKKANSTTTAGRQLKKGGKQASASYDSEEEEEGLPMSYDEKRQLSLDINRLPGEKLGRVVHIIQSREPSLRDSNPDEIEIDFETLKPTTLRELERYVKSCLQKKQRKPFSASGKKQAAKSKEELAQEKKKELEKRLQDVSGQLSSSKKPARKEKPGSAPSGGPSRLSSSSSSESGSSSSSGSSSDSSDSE
Chain of MOF (Q9H7Z6 whole entry, species assumed): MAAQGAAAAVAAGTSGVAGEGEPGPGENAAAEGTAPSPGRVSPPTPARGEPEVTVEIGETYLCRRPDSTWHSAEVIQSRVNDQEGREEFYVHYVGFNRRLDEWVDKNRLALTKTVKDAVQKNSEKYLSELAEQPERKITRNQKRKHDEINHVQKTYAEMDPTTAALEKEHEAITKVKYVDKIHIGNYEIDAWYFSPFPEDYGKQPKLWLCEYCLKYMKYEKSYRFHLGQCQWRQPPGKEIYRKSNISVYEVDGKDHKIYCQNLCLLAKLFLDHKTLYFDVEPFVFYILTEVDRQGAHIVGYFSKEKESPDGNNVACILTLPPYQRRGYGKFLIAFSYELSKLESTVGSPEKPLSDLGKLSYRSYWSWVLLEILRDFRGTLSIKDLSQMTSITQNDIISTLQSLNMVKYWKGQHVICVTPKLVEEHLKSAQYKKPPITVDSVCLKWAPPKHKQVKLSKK

Compound: N#C/C(=C\c1ccc(-c2cc(Cl)ccc2Cl)o1)C(=O)Nc1cccc2cccnc12 [AGK7]
- IC50 (SIRT3): > 5000 nM
- IC50 (SIRT2): > 50000 nM

Compound: O=C(Nc1ccc2c(O)cc(S(=O)(=O)O)cc2c1)Nc1ccc2c(O)cc(S(=O)(=O)O)cc2c1 [AMI-1 (sodium salt)]
- IC50 (yeast Hmt1p): 3000 nM
- IC50 [1]: 5000 nM

Compound: O=C1COc2c(CCNCCN(C(=O)CCNCCc3ccc(Cl)c(Cl)c3)C3CCCCC3)ccc(O)c2N1 [AZ 505]
- IC50 (SMYD2): 120 nM

Compound: C(=N\Nc1ncnc2sc3c(c12)CCCC3)/c1c[nH]c2ccccc12 [B32B3]
- IC50 [2]: 500 nM

Compound: CCOC(=O)NCCCC(=O)NCCc1ccccc1 [CAY10683]
- GI50 (human dermal fibroblasts): > 100000 nM
- GI50 (HuT-78 cells): 1400 nM
- IC50 (HDAC6): 434 nM
- GI50 (HCT116): 29400 nM
- IC50 (HDAC2): 0.119 nM
- IC50 (HDAC4): > 1000 nM

Compound: O=C(/C=C/c1cccc(C(=O)NO)c1)NO [CBHA]
- neuroblastoma tumor growth (neuroblastoma tumor): completely suppresses neuroblastoma tumor growth in SCID

Compound: Cc1cc(Cl)ccc1OCCCC(=O)NO [Droxinostat]
- IC50 (HDAC8): 1460 nM

Compound: CCC(CC)n1ccc2c(C(=O)NCc3c(C)cc(C)[nH]c3=O)cc(C#N)cc21 [EI1]
- IC50 (EZH2): 15 nM
- IC50 (EZH2 (Y641F)): 13 nM

Compound: Cc1cc(C)c(CNC(=O)c2cc(-c3ccc(CN4CCOCC4)cc3)cc3c2cnn3C2CCCC2)c(=O)[nH]1 [EPZ005687]
- IC50 [3]: 80 nM

Compound: CCCc1cc(C)[nH]c(=O)c1CNC(=O)c1cc(-c2ccnc(N3CCN(C)CC3)c2)cc2c1cnn2C(C)C [GSK343]
- IC50 (EZH2): 4 nM
- IC50 [4]: 174 nM

Compound: CC(C)(C)OC(=O)CN(Cc1ccc(Cl)cc1)Cc1ccc([N+](=O)[O-])s1 [GSK4112]
- EC50 (REV-ERBa): 400 nM

Compound: CC(=O)N1c2ccc(-c3ccc(C(=O)O)cc3)cc2[C@H](Nc2ccc(Cl)cc2)C[C@@H]1C [GSK1324726A (I-BET726)]
- IC50 (BRD3): 31 nM
- IC50 (BRD2): 41 nM

Compound: CC[C@H](C)n1cc(C)c2c(C(=O)NCc3c(C)cc(C)[nH]c3=O)cc(-c3ccc(N4CCNCC4)nc3)cc21 [GSK 126]
- IC50 [5]: 28 to 61 nM
- IC50 (EZH1): 680 nM
- Ki (EZH1): 89 nM

Compound: O=C(O)CCNc1cc(N2CCc3ccccc3CC2)nc(-c2ccccn2)n1 [GSK-J1 (sodium salt)]
- IC50 (UTX): 56000 nM

Compound: c1ccc([C@@H]2C[C@H]2NC2CCNCC2)cc1 [GSK-LSD1 (hydrochloride)]
- EC50 [6]: < 5 nM

Compound: CCC(=O)N1CCOc2c(cc(-c3ccc(OC)c(OC)c3)cc2OC[C@H]2CCCN(C)C2)C1 [I-CBP112 (hydrochloride)]
- Kd (CBP): 142 nM

Compound: Clc1ccc(N/N=C(\c2ccccc2)c2ccccn2)nc1 [JIB-04]
- IC50 (JMJD2A): 445 nM
- IC50 (JMJD2B): 435 nM

Compound: Cc1cn(CCN2CCN(c3ccccc3-c3cc(C#N)cc(C(=O)NCCCN4CCCC4)c3)CC2)c2ccccc12 [LLY-507]
- IC50 [7]: ~600 nM

Compound: CCCCCCCc1ccc(CCc2cccc(O)c2C(=O)O)cc1 [MG149]
- IC50 (MOF): 47000 nM

Compound: CN(C)CCCNC(=O)c1ccc(-c2cc(O)c3ncccc3c2)cc1 [ML324]
- IC50 [8]: 920 nM

Compound: CN(C)CC(=O)Nc1ccc2[nH]c(=O)c3ccccc3c2c1 [PJ34]
- EC50 (PARP): 20 nM

Compound: O=C(O)C(Cc1c[nH]c2ccccc12)N1C(=O)c2ccccc2C1=O (centres unmarked) [RG108]
- IC50 (DNA methyltransferase): 115 nM

Compound: C#CCCCC(=O)Nc1ccc(C(=O)c2ccc(NC(=O)CCCCCCC(=O)NO)cc2)cc1 [SAHA-BPyne]
- IC50 [9]: ~3000 nM

Compound: O=C(NCC(=O)N1CCCC1)Nc1ccc2cnccc2c1 [SGC707]
- IC50 [10]: < 1000 nM

Compound: O=c1[nH]c(=S)[nH]c(-c2ccccc2)c1Cc1c(O)ccc2ccccc12 [SIRT1/2 Inhibitor IV]
- IC50 (SIRT5): > 300000 nM

Compound: COc1cc2c(NC3CCN(C(C)C)CC3)nc(N3CCC(F)(F)CC3)nc2cc1OCCCN1CCCC1 [UNC0642]
- IC50 [11]: 40 nM
- Ki [12]: 3.7 nM
- IC50 [13]: 110 nM

Compound: COc1cc2c(NC3CCN(C4CCCCC4)CC3)nc(N3CCCN(C(C)C)CC3)nc2cc1OCCCN1CCCCC1 [UNC0646]
- IC50 (GLP): 15 nM
- IC50 [13]: 26 nM

Compound: CCCc1cc(C)[nH]c(=O)c1CNC(=O)c1cc(-c2ccc(N3CCN(C(C)C)CC3)nc2)cc2c1cnn2C(C)C [UNC1999]
- IC50 (EZH2): 2 nM
- IC50 [14]: 124 nM

Compound: COC(=O)c1ccc(N2CCN(C)CC2)c(NC(=O)c2cccc(OC)c2)c1 [WDR5-0103]
- IC50 (MLL core complex): 39000 nM
- Kd (WDR5): 450 nM

Compound: C[C@H](NC(=O)/C(C#N)=C/c1cccc(Br)n1)c1ccccc1 [WP1066]
- IC50 (JAK2): 2300 nM
- IC50 (STAT3): 2430 nM

Compound: AG-490 (Tyrphostin B42)
- fold more selective for EGFR versus ErbB2 (EGFR): 135 fold
